In ChEMBL document CHEMBL1201862, “PubChem BioAssay data set” (2004):
Calls of active or inactive are those of the source.

Assays:
[1] = target: 5-hydroxytryptamine receptor 1A (Homo sapiens, UniProt P08908); assay type: functional
[2] = Luminescence Cell-Based Dose-Confimation HTS to Identify Inhibitors of 5'UTR Stem-Loop Driven Alpha-Synuclein mRNA Translation in H4 Neuroglioblastoma Cells. [Related pubchem assays: 1827 (Project Summary), 1813 (Primary HTS)]; assay type: functional
[3] = target: NADPH oxidase 1 (Homo sapiens, UniProt Q9Y5S8); assay type: functional, cell-based;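 further: Cell-based assay with luminescence read-out, IC50 derived from inhibitor dose-response curves; intracellular ROS from endogenous NOX1 in intact HT29 colon cancer cells; potency of inhibitors that lower the ROS luminescence signal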
[4] = target: Sphingosine 1-phosphate receptor 2 (Homo sapiens, UniProt O95136); test: Dose Response Cell-Based Assay for Agonists of the Sphingosine 1-Phosphate Receptor 2 (S1P2): Purchased Analogues. [Related pubchem assays: 1192, 373, 439 ]; assay type: functional
[5] = target: Sphingosine 1-phosphate receptor 1 (Homo sapiens, UniProt P21453); test: Dose Response Cell-Based Assay for Agonists of the Sphingosine 1-Phosphate Receptor 1 (S1P1): Purchased Analogues. [Related pubchem assays: 1192, 373, 439 ]; assay type: functional
[6] = target: Sphingosine 1-phosphate receptor 3 (Homo sapiens, UniProt Q99500); test: Dose Response Cell-Based Assay for Agonists of the Sphingosine 1-Phosphate Receptor 3 (S1P3): Purchased Analogues. [Related pubchem assays: 373, 439 ]; assay type: functional
[7] = target: Potassium voltage-gated channel subfamily KQT member 2 (Rattus norvegicus, UniProt O88943, W236L); test: KCNQ2 channel potentiators, dose response, mechanism study for KCNQ2 potentiator project, cell-based, automated electrophysiology (AID 2603); assay type: functional
[8] = target: T1, Replicative DNA helicase DnaB (Mycobacterium tuberculosis, UniProt P9WMR3); test: DnaB intein splicing inhibitors, dose response, biochemical, cell-free fluorescence (AID 449749); assay type: functional
T1 sequence (P9WMR3 whole entry): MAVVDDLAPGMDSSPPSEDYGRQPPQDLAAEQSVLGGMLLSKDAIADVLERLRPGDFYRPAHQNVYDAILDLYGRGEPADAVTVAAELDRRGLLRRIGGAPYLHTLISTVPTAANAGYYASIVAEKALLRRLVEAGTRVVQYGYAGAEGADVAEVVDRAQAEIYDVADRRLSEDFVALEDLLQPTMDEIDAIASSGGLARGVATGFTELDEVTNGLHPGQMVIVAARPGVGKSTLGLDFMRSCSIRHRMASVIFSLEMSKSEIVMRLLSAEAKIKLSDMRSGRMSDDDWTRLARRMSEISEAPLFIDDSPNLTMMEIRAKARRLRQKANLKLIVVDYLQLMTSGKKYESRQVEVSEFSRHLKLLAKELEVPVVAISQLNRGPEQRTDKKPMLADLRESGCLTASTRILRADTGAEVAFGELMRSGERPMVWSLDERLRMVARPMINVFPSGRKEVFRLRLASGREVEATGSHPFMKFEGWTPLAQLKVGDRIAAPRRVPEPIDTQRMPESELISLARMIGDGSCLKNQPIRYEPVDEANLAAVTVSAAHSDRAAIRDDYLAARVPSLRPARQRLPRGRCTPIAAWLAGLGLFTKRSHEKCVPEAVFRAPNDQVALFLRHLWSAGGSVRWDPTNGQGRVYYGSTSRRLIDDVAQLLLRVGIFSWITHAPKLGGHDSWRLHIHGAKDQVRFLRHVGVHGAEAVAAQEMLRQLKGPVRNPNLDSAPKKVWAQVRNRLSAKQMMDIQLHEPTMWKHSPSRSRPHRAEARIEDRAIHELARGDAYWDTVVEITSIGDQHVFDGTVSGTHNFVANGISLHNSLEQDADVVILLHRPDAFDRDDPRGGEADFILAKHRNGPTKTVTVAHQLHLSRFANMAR

[9] = tested on: Vero; test: Vero cell cytotoxicity, cytotoxicity control for flavivirus capping enzyme inhibitors (AID 588742); assay type: functional; settings: Chlorocebus sabaeus
[10] = target: T2, Protein RecA (Mycobacterium tuberculosis, UniProt P9WHJ3); test: Fluorescence Cell-Free Homogeneous Dose Retest to Identify Inhibitors of RecA-Intein Splicing Activity. [Related pubchem assays (depositor defined):AID2097, AID2223, AID489010, AID492950]; assay type: functional
T2 sequence (P9WHJ3 whole entry): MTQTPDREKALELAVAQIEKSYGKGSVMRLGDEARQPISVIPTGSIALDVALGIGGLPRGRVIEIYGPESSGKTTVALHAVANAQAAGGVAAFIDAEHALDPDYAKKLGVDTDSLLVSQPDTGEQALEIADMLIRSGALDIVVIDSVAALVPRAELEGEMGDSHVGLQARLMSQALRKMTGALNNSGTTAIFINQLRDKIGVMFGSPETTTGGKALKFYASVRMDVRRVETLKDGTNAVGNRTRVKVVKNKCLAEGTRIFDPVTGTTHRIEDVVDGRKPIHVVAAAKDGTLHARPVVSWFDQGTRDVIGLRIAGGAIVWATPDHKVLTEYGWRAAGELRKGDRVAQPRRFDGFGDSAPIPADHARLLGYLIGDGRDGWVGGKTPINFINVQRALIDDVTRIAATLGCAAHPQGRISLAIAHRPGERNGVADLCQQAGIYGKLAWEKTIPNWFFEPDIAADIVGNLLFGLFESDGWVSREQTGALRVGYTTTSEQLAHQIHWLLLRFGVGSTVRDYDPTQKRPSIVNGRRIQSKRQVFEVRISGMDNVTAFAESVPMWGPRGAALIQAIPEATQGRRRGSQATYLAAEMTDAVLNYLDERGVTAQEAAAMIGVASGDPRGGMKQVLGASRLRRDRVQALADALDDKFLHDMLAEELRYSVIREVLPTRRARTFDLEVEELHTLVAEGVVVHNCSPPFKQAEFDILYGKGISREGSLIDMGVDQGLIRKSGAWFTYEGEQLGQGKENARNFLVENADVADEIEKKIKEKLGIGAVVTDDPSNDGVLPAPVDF

[11] = target: Genome polyprotein (dengue virus type 2, UniProt P29990); test: Dengue-2 NS5 methyltransferase inhibitors, primary screen, biochemical, confirmation dose response (AID 588689); assay type: functional
[12] = Shn3 3'UTR reporter inhibitors, dose response, cell-based, Clone20 osteoblasts, firefly luciferase, cherry-picked (AID 624132); assay type: functional;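 further: firefly luciferase luminescence from reporter carrying the Shn3 3'UTR in osteoblasts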
[13] = HepG2 cell cytotoxicity, dose response, cytotoxicity control for Shn3 inhibitor project, CellTiter-Glo, cherry-picked (AID 624134); assay type: functional, cell-based
[14] = control 3'UTR Renilla luciferase suppression, dose response, counter-screen for Shn3 inhibitor project, cell-based, Clone20-Shn3RL, cherry-picked (AID 624133); assay type: functional
[15] = target: T3, Hepatocyte nuclear factor 4-alpha (Homo sapiens, UniProt P41235); assay type: functional, cell-based;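 further: biochemical luminescence-based dose-response counterscreen measuring inhibition of HNF4 dimerization, run alongside a screen for blockers of ABHD5–perilipin-5 interaction; split luciferase complementation of HNF4 fusion proteins in cell lysate measuring dimerization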
T3 sequence (P41235 whole entry): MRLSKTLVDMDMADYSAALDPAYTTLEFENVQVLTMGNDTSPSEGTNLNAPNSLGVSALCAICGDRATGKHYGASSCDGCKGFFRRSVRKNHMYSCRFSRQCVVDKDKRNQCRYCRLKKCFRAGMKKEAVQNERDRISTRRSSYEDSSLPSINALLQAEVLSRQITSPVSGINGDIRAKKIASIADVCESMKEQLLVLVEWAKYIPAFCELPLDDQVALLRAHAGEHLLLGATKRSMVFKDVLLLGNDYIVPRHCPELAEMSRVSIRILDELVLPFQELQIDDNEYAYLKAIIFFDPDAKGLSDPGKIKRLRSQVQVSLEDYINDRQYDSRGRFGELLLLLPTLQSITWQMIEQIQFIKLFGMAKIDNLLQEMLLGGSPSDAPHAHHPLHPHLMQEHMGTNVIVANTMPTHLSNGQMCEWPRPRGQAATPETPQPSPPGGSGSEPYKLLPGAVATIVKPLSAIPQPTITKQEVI

[16] = target: T4, Neuropeptide Y receptor type 2 (Homo sapiens, UniProt P49146); test: NPY-Y2 antagonist potency, selectivity check, dose response, counter-screen for NPY-Y1 antagonist project, cell-based (AID 1278); assay type: functional
T4 sequence (P49146 whole entry): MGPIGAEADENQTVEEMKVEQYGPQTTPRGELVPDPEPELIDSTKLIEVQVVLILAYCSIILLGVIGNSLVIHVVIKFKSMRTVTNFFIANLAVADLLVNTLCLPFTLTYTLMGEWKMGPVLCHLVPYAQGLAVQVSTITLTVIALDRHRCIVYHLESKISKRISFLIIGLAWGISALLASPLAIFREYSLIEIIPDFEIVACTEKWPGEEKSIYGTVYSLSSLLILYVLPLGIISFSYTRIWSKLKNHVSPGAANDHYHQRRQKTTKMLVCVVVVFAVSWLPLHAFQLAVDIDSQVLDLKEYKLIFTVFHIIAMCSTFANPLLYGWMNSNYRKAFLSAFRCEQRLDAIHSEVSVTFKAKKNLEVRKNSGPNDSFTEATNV

[17] = target: T5, Rac GTPase-activating protein 1 (Homo sapiens, UniProt Q9H0H5); test: MgcRacGAP GTPase-activating activity inhibitors, confirmation, biochemical, ADP Hunter fluorescence, primary and confirmatory (AID 624330); assay type: functional
T5 sequence (Q9H0H5 whole entry): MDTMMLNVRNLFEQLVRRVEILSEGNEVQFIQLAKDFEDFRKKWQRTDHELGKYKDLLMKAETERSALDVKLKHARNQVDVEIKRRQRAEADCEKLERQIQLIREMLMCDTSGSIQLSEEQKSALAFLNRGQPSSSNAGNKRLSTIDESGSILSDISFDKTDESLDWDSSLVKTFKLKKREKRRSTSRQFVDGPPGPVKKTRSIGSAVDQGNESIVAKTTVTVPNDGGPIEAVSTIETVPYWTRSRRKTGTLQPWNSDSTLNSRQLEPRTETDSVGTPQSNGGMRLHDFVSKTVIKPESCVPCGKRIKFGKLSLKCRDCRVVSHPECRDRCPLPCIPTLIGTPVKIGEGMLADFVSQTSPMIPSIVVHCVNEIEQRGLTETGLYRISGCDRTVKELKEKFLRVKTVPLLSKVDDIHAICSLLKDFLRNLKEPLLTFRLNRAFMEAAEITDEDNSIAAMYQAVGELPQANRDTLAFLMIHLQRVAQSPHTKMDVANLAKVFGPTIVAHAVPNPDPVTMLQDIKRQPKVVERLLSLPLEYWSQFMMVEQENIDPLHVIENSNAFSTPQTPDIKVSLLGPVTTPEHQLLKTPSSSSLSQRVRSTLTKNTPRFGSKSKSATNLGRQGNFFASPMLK

Sequence of 5-hydroxytryptamine receptor 1A (P08908 whole entry): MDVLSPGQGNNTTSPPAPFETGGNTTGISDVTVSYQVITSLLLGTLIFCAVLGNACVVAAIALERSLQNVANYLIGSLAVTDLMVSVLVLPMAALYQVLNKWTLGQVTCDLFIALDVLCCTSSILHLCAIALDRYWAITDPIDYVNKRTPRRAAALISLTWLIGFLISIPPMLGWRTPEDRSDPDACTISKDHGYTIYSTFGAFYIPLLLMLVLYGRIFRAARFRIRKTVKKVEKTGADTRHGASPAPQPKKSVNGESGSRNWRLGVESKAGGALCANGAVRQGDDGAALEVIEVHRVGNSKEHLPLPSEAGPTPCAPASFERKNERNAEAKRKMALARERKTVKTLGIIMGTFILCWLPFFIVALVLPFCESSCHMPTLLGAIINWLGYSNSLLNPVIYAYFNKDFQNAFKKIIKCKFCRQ
Sequence of Potassium voltage-gated channel subfamily KQT member 2 (O88943 whole entry W236L): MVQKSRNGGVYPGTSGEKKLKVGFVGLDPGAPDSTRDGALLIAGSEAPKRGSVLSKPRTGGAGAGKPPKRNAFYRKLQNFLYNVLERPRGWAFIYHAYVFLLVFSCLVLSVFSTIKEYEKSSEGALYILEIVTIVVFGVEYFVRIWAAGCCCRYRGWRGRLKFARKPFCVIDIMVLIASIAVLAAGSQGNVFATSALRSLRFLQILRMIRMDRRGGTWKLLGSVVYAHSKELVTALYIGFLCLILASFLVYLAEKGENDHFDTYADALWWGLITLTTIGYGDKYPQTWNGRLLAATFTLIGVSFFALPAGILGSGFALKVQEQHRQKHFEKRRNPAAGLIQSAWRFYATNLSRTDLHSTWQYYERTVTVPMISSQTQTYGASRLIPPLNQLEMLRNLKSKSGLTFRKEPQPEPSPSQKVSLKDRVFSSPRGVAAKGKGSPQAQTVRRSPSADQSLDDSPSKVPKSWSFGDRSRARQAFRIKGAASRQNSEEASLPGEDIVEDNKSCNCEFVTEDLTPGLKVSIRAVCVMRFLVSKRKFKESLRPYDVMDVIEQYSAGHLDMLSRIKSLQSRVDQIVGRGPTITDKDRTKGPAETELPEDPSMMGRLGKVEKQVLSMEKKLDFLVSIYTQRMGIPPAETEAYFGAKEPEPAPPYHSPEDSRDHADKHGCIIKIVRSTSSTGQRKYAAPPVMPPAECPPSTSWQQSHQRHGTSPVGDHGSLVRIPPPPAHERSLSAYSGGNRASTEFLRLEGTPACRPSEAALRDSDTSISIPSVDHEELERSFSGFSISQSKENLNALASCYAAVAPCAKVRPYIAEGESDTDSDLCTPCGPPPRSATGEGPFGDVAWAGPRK
Sequence of Genome polyprotein (P29990 2492-3391 limits assumed): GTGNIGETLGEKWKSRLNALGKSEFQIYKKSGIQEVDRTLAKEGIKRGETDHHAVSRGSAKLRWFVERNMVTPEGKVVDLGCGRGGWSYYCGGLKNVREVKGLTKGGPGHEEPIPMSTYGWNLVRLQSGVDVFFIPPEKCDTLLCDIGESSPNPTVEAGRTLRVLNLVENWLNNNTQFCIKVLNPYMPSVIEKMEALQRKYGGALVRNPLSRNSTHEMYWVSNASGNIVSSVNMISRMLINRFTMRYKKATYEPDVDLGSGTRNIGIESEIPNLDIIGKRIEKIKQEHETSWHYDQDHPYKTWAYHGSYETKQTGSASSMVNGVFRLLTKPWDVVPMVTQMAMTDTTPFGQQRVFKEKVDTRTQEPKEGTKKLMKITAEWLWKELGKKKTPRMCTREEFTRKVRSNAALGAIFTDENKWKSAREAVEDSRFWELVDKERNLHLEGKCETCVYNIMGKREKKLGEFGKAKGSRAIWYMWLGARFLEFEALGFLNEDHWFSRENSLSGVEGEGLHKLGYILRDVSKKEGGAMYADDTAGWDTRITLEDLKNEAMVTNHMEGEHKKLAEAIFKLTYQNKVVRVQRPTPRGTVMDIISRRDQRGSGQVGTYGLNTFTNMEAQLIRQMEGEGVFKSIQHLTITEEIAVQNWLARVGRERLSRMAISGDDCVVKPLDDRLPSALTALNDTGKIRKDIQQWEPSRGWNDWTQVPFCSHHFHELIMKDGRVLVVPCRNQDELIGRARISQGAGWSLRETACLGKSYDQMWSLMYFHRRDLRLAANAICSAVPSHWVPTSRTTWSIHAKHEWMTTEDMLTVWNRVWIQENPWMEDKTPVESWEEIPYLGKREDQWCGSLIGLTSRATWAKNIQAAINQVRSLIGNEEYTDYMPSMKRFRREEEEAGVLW
Sequence of Sphingosine 1-phosphate receptor 2 (O95136 whole entry): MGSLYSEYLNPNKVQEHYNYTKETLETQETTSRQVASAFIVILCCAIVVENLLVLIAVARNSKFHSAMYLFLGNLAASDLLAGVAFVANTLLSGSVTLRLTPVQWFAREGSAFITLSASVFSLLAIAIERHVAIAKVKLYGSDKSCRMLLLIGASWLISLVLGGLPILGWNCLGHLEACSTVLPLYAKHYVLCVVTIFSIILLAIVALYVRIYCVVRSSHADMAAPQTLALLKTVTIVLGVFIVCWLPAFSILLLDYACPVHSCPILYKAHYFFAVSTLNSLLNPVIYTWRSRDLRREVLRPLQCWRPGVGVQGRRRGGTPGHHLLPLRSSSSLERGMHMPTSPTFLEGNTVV
Sequence of Sphingosine 1-phosphate receptor 3 (Q99500 whole entry): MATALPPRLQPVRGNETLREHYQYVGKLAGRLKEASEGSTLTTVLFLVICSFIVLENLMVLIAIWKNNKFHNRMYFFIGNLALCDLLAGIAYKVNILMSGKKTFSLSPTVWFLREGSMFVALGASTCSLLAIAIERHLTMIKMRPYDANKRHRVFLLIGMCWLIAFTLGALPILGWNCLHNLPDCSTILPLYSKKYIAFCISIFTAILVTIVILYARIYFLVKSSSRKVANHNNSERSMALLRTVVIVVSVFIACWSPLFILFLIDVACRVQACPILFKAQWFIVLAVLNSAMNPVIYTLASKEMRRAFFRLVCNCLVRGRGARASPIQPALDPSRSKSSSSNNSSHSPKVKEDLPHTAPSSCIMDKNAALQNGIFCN
Sequence of NADPH oxidase 1 (Q9Y5S8 whole entry): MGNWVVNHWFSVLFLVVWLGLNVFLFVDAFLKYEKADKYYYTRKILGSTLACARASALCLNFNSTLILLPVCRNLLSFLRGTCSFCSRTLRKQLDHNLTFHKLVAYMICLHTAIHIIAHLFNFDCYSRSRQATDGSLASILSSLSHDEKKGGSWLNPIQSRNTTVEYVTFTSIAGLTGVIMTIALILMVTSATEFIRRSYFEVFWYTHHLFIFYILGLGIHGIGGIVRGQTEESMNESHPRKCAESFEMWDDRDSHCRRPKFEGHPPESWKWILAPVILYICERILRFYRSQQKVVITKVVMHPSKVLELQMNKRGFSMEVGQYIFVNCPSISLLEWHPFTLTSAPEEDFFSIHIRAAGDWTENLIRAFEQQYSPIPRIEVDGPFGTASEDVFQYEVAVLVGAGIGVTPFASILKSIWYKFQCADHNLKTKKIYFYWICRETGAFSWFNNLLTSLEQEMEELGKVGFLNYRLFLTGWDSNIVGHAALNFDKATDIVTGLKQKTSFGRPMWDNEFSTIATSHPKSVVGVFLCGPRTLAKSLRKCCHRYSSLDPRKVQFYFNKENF
Sequence of Sphingosine 1-phosphate receptor 1 (P21453 whole entry): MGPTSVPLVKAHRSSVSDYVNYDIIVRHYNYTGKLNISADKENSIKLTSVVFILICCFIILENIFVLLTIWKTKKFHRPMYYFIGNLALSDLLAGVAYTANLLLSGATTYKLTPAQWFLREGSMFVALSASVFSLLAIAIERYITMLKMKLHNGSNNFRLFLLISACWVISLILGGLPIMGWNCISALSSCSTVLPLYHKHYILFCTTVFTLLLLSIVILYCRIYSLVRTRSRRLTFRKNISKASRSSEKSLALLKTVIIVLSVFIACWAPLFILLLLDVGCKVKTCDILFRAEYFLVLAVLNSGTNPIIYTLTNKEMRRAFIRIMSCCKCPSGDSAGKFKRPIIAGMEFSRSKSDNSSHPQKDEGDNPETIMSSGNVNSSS

CCOC(=O)c1c(C)nc(-c2ccccc2)nc1NC(=O)CC
EC50 [1]: > 50 µM (not active)

CN(C)c1nc(N)nc(CSc2nnnn2-c2ccc(Cl)cc2)n1
EC50 [2]: > 100 µM (not active)

O=C(Oc1cccc([N+](=O)[O-])c1)c1sc2ccccc2c1Cl
IC50 [3]: > 17 µM (not active)

CCC(C)NC(=O)c1cc(-c2ccc(C)cc2)on1 (configuration not stated)
EC50 [4]: > 10 µM (not active)
EC50 [5]: > 50 µM (not active)
EC50 [6]: > 50 µM (not active)

CSc1nnc(NC(=O)c2nc(S(=O)(=O)Cc3ccc(C)cc3)ncc2Cl)s1
EC50 [7]: 34.9 µM (active)
AC50 [8]: 5.31 µM (active)
CC50 [9]: 30.9 µM (active)
EC50 [10]: 3.26 µM (active)
IC50 [11]: 40.5 µM (active)
AC50 [12]: 3.18 µM (active)
AC50 [13]: > 70 µM (inactive)
AC50 [14]: 11.1 µM (active)
IC50 [15]: 4.93 µM (active)

COc1cccc(Oc2c[nH]nc2-c2ccc(O)cc2O)c1
IC50 [16]: > 35 µM (not active)
IC50 [17]: 39.4 µM (active)
